Entries after “also recorded” stand apart in the source; their conditions may differ.
Legend:
murine NASH model = experiment: Murine NASH model (HFD, glucose/fructose drinking water, thermoneutral housing) treated with UCB9608; assay type: in vivo, mice
Method: To model NASH in murine liver, male C57BL/6N mice were challenged with HFD for 24 weeks in conjunction with 18.9 g/L glucose&23.1 g/L fructose containing drinking water under thermoneutral housing condition (29°C) for 12 weeks before the administration of UCB9608 through HFD (15 mg/kg) for another 12 weeks. Then the mice were analysed in EcoMRI for body composition measurement before 6 hours fasting, followed by dissection to harvest liver and sample blood.
Total RNA was extracted from adipose depots, liver or in vitro cell cultures via Trizol reagent (Invitrogen) according to the manufacturer's instructions. Genomic DNA was removed from the crude RNA samples by DNase treatment (NEB BioLabs). For individual sample, 1 µg of total RNA was used to convert into cDNA library by using the High-Capacity cDNA Reverse transcription kit (Applied Biosystems, 4368813). Quantitative PCR was performed using KAPA SYBR FAST Universal kit (Roche, KK4618) on ViiA7 (Applied Biosystems) and the relative transcript levels were normalized to […] expression via ΔΔCt method. Table 2: Sequences of qPCR primers used in this study.
Plasma collected from mice under different conditions was used to determine levels of lipolysis and liver injury. FFA levels were measured via NEFA assay kit (Wako NEFA kit). TG levels were determined via TG assay kit (Roche Trig/GB reagent). ALT (MAK052, Sigma) and AST (MAK055, Sigma) assay kits were used to determine ALT and AST activity according to the manufacturer's instructions. The absorbance was monitored using Synergy Gen5 Platereader.
Weight of liver pieces (50-100 mg) was recorded before homogenization by 1 mL isopropanol per 50 mg tissue. The homogenates were incubated at room temperature with rotating before spinning down to remove debris at 2000×g for 10 min and collect supernatant. The TG levels were determined (Roche Trig/GB reagent) in Synergy Gen5 Platereader and normalized to the weight of liver pieces.
For NASH cohort, livers were dissected and fixed with 4% PFA in PBS for 24 h at 4°C. The samples were sent to the University of Zurich for histologic analyses. Briefly, liver tissues were dehydrated and embedded in paraffin and underwent section at 3 µm. The slides were stained with hematoxylin and eosin (H&E) and Gomori Green Trichrome directly or stained with anti-cleaved Caspase 3 after antigen retrieval. Afterwards, the images were captured by digital slide scanners and the grade of steatosis, ballooning, inflammation and fibrosis were quantified via the NASH Clinical Research Network Scoring System (Kleiner,D.E. et al. Hepatology 41, (2005)). To perform ORO staining, the fixed samples were sectioned, and the slides were stained via Oil Red O solution, followed by counter-staining with eosin. The images were acquired by digital slide scanners.

steatotic human liver = experiment: Ex vivo normothermic machine perfusion of a steatotic human liver graft
Method: A human liver graft was perfused for 8 days, after being discarded from all Swiss transplant centers. Use of discarded grafts was approved by local authorities (Kantonale Ethik Kommission Zürich KEK Nr. 2017-000412). […] The liver was procured with a total ischemia time of 40 min after circulatory death of the donor. It was flushed with IGL-1 solution and perfused for 2 h with Belzer MPS at 8°C. The infrahepatic vena cava was closed with a suture and the hepatic artery, portal vein, suprahepatic vena cava and common bile duct were cannulated with steel cannulas. The graft was subsequently perfused with whole blood and a custom built normothermic perfusion machine (Eshmuminov,D. et al, Nat Biotechnol 38, (2020)). Hepatic arterial pressure was controlled to be 80/50 mmHg, allowing for an average flow of 0.25 L/min. A vasodilator, epoprostenol, was automatically infused to keep arterial flow stable. Oxygenation was automatically controlled with a setpoint partial pressure of oxygen equal to 12 kPa. Portal venous flow was controlled to be at 1 L/min, resulting in a pressure of 2 mmHg on average. Further, oxygenation of portal blood was automatically regulated to achieve 65% saturation in the vena cava. Use of an electric pinch valve further allowed for pressure regulation in the vena cava, keeping a constant pressure of 0 mmHg. Glucose levels were automatically controlled by using a real-time glucose sensor (CCIT) and automated insulin infusions, keeping glucose levels at 7 mmol/L from the second day of perfusion onwards. A dialysis bypass was used to clear waste metabolites and control haematocrit levels by using a fixed dialysate influx rate of 200 mL/h and an automatically controlled outflux. Liver function was well preserved for at least 6 days and cell viability, as monitored by ATP analysis and histology, remained until the end of perfusion. After 8 days of perfusion, the liver weight decreased to 1507g (without gallbladder) and was sent for pathological examination.
Perfusate was mixed with 6 units of red blood cell concentrate (A+), 5 units of fresh frozen […], one unit of thrombocytes and 200 mL of 20% human albumin (CSL Behring). An initial bolus of 2.25 g Tazobactam and 500 mg Methylprednisolone was administered after priming. During the perfusion, 1000 U of heparin were infused per hour. Further, 2.25 g of Tazobactam, 3.36 g of ursodesoxycholic acid and 500 mg of methylprednisolone were continuously infused per day. UCB9608 was administered as a daily bolus by adding 300 µL of 50 mM solution directly to the blood reservoir, targeting a final concentration in the perfusate of 10 µM. On the first day, a larger bolus of 600 µL was given.
Adipose depots, liver pieces, differentiated iBAs, HepG2, HEK293T and HEK293-AAV cell types were homogenized in RIPA buffer (50 mM Tris-HCl pH 7.4, 150 mM NaCl, 2 mM EDTA, 1.0% Triton X100, 0.5% sodium deoxycholate) with protease inhibitors (Complete, Roche) and phosphatase inhibitors (Halt phosphatase inhibitor cocktail, ThermoFisher). The homogenates were centrifuged at 12,000×g for 10 min at 4°C to remove debris and collect whole cell extract (WCE). The concentration of WCE was determined by DC Protein Assay (Bio-Rad). After boiling the sample with Lämmeli buffer at 95°C for 5 min, equal amount of proteins was loaded and separated on 12% SDS-PAGE. […]

[1] = NASH mice, 12 weeks after administration of UCB9608
[2] = liver histology, NASH mice, UCB9608 vs vehicle
[3] = UCB9608 daily, target concentration 10 µM, 8 days perfusion, unchanged in two control grafts

COc1ccc(NC(=O)N2CCN(c3nc(N)nc4c3cnn4C)[C@@H](C)C2)c(C)c1 [UCB9608]
transcript levels of inflammatory markers (murine NASH model; NASH livers, qPCR): mitigation
fibrosis-related marker expression (murine NASH model; NASH livers, qPCR, vs vehicle-treated control NASH mice): substantially ameliorated
TG levels in the plasma (murine NASH model; [1]): reduction; also recorded: reduced
lipolysis (plasma FFA levels) (murine NASH model; [1]): enhanced
ALT activity in the plasma (murine NASH model; NASH mice, UCB9608 12 weeks): reduction
AST activity in the plasma (murine NASH model; NASH mice, UCB9608 12 weeks): reduction
hepatic TG levels (murine NASH model; NASH mice, UCB9608 12 weeks): reduced
liver mass/body weight ratio (murine NASH model; NASH mice, UCB9608 12 weeks): reduced
body weight (murine NASH model; NASH mice, UCB9608 through HFD (15 mg/kg) for 12 weeks): significant loss
fat mass (murine NASH model; NASH mice, UCB9608 through HFD (15 mg/kg) for 12 weeks, EcoMRI): significant loss
NAFLD activity score (murine NASH model; [2]): significantly lower
fibrosis grade (murine NASH model; [2]): significantly lower
inflammation levels (murine NASH model; [2]): significantly lower
liver injury (murine NASH model; [2]): significantly lower
steatosis grade (murine NASH model; [2]): significantly lower
fatty acid oxidation (murine NASH model; liver of NASH mice, UCB9608 12 weeks): significant elevation
ATGL levels in human liver biopsies (steatotic human liver; [3]): substantially elevated
TG deposition in human liver biopsies (steatotic human liver; [3]): reduced
macrovesicular steatosis of the liver graft (steatotic human liver; after 8 days of perfusion, 15% before perfusion): less than 5%
bile acid excretion and oxygen consumption of the graft (steatotic human liver; during perfusion with UCB9608): normal
non-esterified fatty acids (NEFAs) from dialysate (steatotic human liver; during perfusion with UCB9608): detected
